Where only a bound is given, the exact number is not on record here.

In the assay the test system is normal, non-HF ovine model. Put plainly: Change in right and left ventricle contractility after injection, with max(dP/dt) pressure as surrogate and heartbeat-by-heartbeat RV/LV correlation. It is filed as in vivo. The conditions noted are these: max(dP/dt) used as surrogate for contractility. The source says:
The correlation was a heartbeat-by-heartbeat analysis. Pressure measurements, taken by a Millar catheter comprising a MEMS pressure sensor, in units of max(dP/dt) was used as a surrogate for contractility. The first change, a dobutamine injection, provided a very high contractility increase greater than 500%. The average correlation between right ventricle contractility and left ventricle contractility was very good at 0.91, where 1.00 is a perfect correlation. Accordingly, if a subject is given a dobutamine injection, measuring changes to right ventricle contractility can provide accurate information about changes to left ventricle contractility. The first change was repeated three times. The second change, calcium injection at 5 mL, provided a contractility increase of about 20%. […] The average correlation between right ventricle contractility and left ventricle contractility using a Millar (MEMS) sensor on a catheter was very good at 0.91. The average correlation between right ventricle contractility and left ventricle contractility using a fluid-filled lumen of a Swan-Ganz catheter in communication with an external pressure sensor was also very good at 0.87. Accordingly, under certain circumstances such as measurement of an animal (normal, non-HF ovine model) model, if a subject is given a calcium injection, measuring changes to right ventricle contractility with a MEMS sensor or a fluid filled lumen can provide accurate information about changes to left ventricle contractility.

Consider `CC(CCc1ccc(O)cc1)NCCc1ccc(O)c(O)c1` (stereo not shown) [Dobutamine Injection, dobutamine], for which the “Contractility % Increase” value was greater than 500%. In addition, the “Contractility % Increase” value (listed as dobutamine injection) is given as “greater than 500%”.
calcium [Calcium Injection]: the “Contractility % Increase” value is on record as roughly 20%. For the same molecule, the “Contractility % Increase” value (listed as calcium injection) is “about 20%”.

Source of the values: patent US12042655B2, “Systems for detecting catheter movement” (Cardionomic, Inc., priority 2017, dated 2024).
